From the supplement of paper PMC10307832

What was measured:
Test in all cases: relative viability (nuclei count vs DMSO), 5 days (fraction); higher = more cells survive
Gemcitabine + AZD7762 = compound: Nc1ccn([C@@H]2O[C@H](CO)[C@@H](O)C2(F)F)c(=O)n1 [Gemcitabine] + NC(=O)Nc1cc(-c2cccc(F)c2)sc1C(=O)N[C@H]1CCCNC1 [AZD7762] (partner 0.2 µM)
Outline: (§1)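 Relative viability divides the nuclei count in treated wells by that in vehicle wells. Lung cancer cell lines were seeded in 1536-well plates, dosed by pin tool the next day, and fixed and stained after 5 days in one step with final 0.05% Triton X-100, 1% formaldehyde and 1 ug/ml Hoechst. Dosing was a single drug or a fixed anchor-drug dose plus five library-drug doses (not always all listed) in √10 steps, and values are medians of duplicate plates imaged at 4×.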

Gemcitabine + Bortezomib = compound: Nc1ccn([C@@H]2O[C@H](CO)[C@@H](O)C2(F)F)c(=O)n1 [Gemcitabine] + CC(C)C[C@H](NC(=O)[C@H](Cc1ccccc1)NC(=O)c1cnccn1)B(O)O [Bortezomib] (partner 0.002 µM)
Outline: as §1

Gemcitabine + Pictilisib = compound: Nc1ccn([C@@H]2O[C@H](CO)[C@@H](O)C2(F)F)c(=O)n1 [Gemcitabine] + CS(=O)(=O)N1CCN(Cc2cc3nc(-c4cccc5[nH]ncc45)nc(N4CCOCC4)c3s2)CC1 [Pictilisib] (partner 1 µM)
Outline: as §1

Gemcitabine + Linsitinib = compound: Nc1ccn([C@@H]2O[C@H](CO)[C@@H](O)C2(F)F)c(=O)n1 [Gemcitabine] + C[C@]1(O)C[C@@H](c2nc(-c3ccc4ccc(-c5ccccc5)nc4c3)c3c(N)nccn32)C1 [Linsitinib] (partner 1 µM)
Outline: as §1

Gemcitabine + Olaparib = compound: Nc1ccn([C@@H]2O[C@H](CO)[C@@H](O)C2(F)F)c(=O)n1 [Gemcitabine] + O=C(c1cc(Cc2n[nH]c(=O)c3ccccc23)ccc1F)N1CCN(C(=O)C2CC2)CC1 [Olaparib] (partner 8 µM)
Outline: as §1

Gemcitabine + Crizotinib = compound: Nc1ccn([C@@H]2O[C@H](CO)[C@@H](O)C2(F)F)c(=O)n1 [Gemcitabine] + C[C@@H](Oc1cc(-c2cnn(C3CCNCC3)c2)cnc1N)c1c(Cl)ccc(F)c1Cl [Crizotinib] (partner 1 µM)
Outline: as §1

Gemcitabine + Navitoclax = compound: Nc1ccn([C@@H]2O[C@H](CO)[C@@H](O)C2(F)F)c(=O)n1 [Gemcitabine] + CC1(C)CCC(c2ccc(Cl)cc2)=C(CN2CCN(c3ccc(C(=O)NS(=O)(=O)c4ccc(N[C@H](CCN5CCOCC5)CSc5ccccc5)c(S(=O)(=O)C(F)(F)F)c4)cc3)CC2)C1 [Navitoclax] (partner 0.5 µM)
Outline: as §1

Gemcitabine + Foretinib = compound: Nc1ccn([C@@H]2O[C@H](CO)[C@@H](O)C2(F)F)c(=O)n1 [Gemcitabine] + COc1cc2c(Oc3ccc(NC(=O)C4(C(=O)Nc5ccc(F)cc5)CC4)cc3F)ccnc2cc1OCCCN1CCOCC1 [Foretinib] (partner 0.25 µM)
Outline: as §1

Gemcitabine + Alpelisib = compound: Nc1ccn([C@@H]2O[C@H](CO)[C@@H](O)C2(F)F)c(=O)n1 [Gemcitabine] + Cc1nc(NC(=O)N2CCC[C@H]2C(N)=O)sc1-c1ccnc(C(C)(C)C(F)(F)F)c1 [Alpelisib] (partner 2 µM)
Outline: as §1

Gemcitabine + Lapatinib = compound: Nc1ccn([C@@H]2O[C@H](CO)[C@@H](O)C2(F)F)c(=O)n1 [Gemcitabine] + CS(=O)(=O)CCNCc1ccc(-c2ccc3ncnc(Nc4ccc(OCc5cccc(F)c5)c(Cl)c4)c3c2)o1 [Lapatinib] (partner 2 µM)
Outline: as §1

Gemcitabine = compound: Nc1ccn([C@@H]2O[C@H](CO)[C@@H](O)C2(F)F)c(=O)n1 [Gemcitabine]
Outline: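 MetaXpress counted nuclei in 4× images of lung cancer cell lines that had been fixed, permeabilised and Hoechst-stained in one step. Before that, cells in 1536-well plates were kept overnight at 37 °C, pinned with five √10-spaced library-drug doses on vehicle-anchored plates, and cultured 5 days without medium change. Viability takes treated-well nuclei over vehicle-well nuclei and uses the median across plates. Plates were accepted only at control CV below 25% and at least one doubling.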

## NCI-H1703
Gemcitabine + AZD7762; first compound 0.001 µM
  relative viability: 0.118
Gemcitabine + AZD7762; first compound 0.003162 µM
  relative viability: 0.104
Gemcitabine + AZD7762; first compound 0.01 µM
  relative viability: 0.105
Gemcitabine + AZD7762; first compound 0.03162 µM
  relative viability: 0.0773
Gemcitabine + AZD7762; first compound 0.1 µM
  relative viability: 0.0798
Gemcitabine + Bortezomib; first compound 0.001 µM
  relative viability: 0.306
Gemcitabine + Bortezomib; first compound 0.003162 µM
  relative viability: 0.209
Gemcitabine + Bortezomib; first compound 0.01 µM
  relative viability: 0.144
Gemcitabine + Bortezomib; first compound 0.03162 µM
  relative viability: 0.11
Gemcitabine + Bortezomib; first compound 0.1 µM
  relative viability: 0.111
Gemcitabine + Pictilisib; first compound 0.001 µM
  relative viability: 0.208
Gemcitabine + Pictilisib; first compound 0.003162 µM
  relative viability: 0.227
Gemcitabine + Pictilisib; first compound 0.01 µM
  relative viability: 0.158
Gemcitabine + Pictilisib; first compound 0.03162 µM
  relative viability: 0.154
Gemcitabine + Pictilisib; first compound 0.1 µM
  relative viability: 0.132
Gemcitabine + Linsitinib; first compound 0.001 µM
  relative viability: 0.774
Gemcitabine + Linsitinib; first compound 0.003162 µM
  relative viability: 0.228
Gemcitabine + Linsitinib; first compound 0.01 µM
  relative viability: 0.103
Gemcitabine + Linsitinib; first compound 0.03162 µM
  relative viability: 0.101
Gemcitabine + Linsitinib; first compound 0.1 µM
  relative viability: 0.132
Gemcitabine + Olaparib; first compound 0.001 µM
  relative viability: 0.359
Gemcitabine + Olaparib; first compound 0.003162 µM
  relative viability: 0.266
Gemcitabine + Olaparib; first compound 0.01 µM
  relative viability: 0.0911
Gemcitabine + Olaparib; first compound 0.03162 µM
  relative viability: 0.119
Gemcitabine + Olaparib; first compound 0.1 µM
  relative viability: 0.105
Gemcitabine + Crizotinib; first compound 0.001 µM
  relative viability: 0.588
Gemcitabine + Crizotinib; first compound 0.003162 µM
  relative viability: 0.208
Gemcitabine + Crizotinib; first compound 0.01 µM
  relative viability: 0.11
Gemcitabine + Crizotinib; first compound 0.03162 µM
  relative viability: 0.125
Gemcitabine + Crizotinib; first compound 0.1 µM
  relative viability: 0.0932
Gemcitabine + Navitoclax; first compound 0.001 µM
  relative viability: 0.73
Gemcitabine + Navitoclax; first compound 0.003162 µM
  relative viability: 0.178
Gemcitabine + Navitoclax; first compound 0.01 µM
  relative viability: 0.141
Gemcitabine + Navitoclax; first compound 0.03162 µM
  relative viability: 0.118
Gemcitabine + Navitoclax; first compound 0.1 µM
  relative viability: 0.102
Gemcitabine + Foretinib; first compound 0.001 µM
  relative viability: 0.277
Gemcitabine + Foretinib; first compound 0.003162 µM
  relative viability: 0.238
Gemcitabine + Foretinib; first compound 0.01 µM
  relative viability: 0.185
Gemcitabine + Foretinib; first compound 0.03162 µM
  relative viability: 0.175
Gemcitabine + Foretinib; first compound 0.1 µM
  relative viability: 0.167
Gemcitabine + Alpelisib; first compound 0.001 µM
  relative viability: 0.274
Gemcitabine + Alpelisib; first compound 0.003162 µM
  relative viability: 0.178
Gemcitabine + Alpelisib; first compound 0.01 µM
  relative viability: 0.107
Gemcitabine + Alpelisib; first compound 0.03162 µM
  relative viability: 0.113
Gemcitabine + Alpelisib; first compound 0.1 µM
  relative viability: 0.117
Gemcitabine + Lapatinib; first compound 0.001 µM
  relative viability: 0.898
Gemcitabine + Lapatinib; first compound 0.003162 µM
  relative viability: 0.262
Gemcitabine + Lapatinib; first compound 0.01 µM
  relative viability: 0.156
Gemcitabine + Lapatinib; first compound 0.03162 µM
  relative viability: 0.164
Gemcitabine + Lapatinib; first compound 0.1 µM
  relative viability: 0.114
Gemcitabine; 0.001 µM
  relative viability: 0.699
Gemcitabine; 0.003162 µM
  relative viability: 0.264
Gemcitabine; 0.01 µM
  relative viability: 0.138
Gemcitabine; 0.03162 µM
  relative viability: 0.126
Gemcitabine; 0.1 µM
  relative viability: 0.115
